From ChEMBL document CHEMBL5236651, “Synthesis and antibacterial activity of novel 2‑fluoro ketolide antibiotics with 11,12‑quinoylalkyl side chains” (2023)
In brackets after ≈: the same amount, converted by molar mass.

Experiments:
Type in all cases: functional
Klebsiella pneumoniae [1] = assay: Antibacterial activity against ESBL positive Klebsiella pneumoniae ATCC 700603 assessed as inhibition of bacterial growth by CLSI based micro broth double dilution method
Klebsiella pneumoniae [2] = assay: Antibacterial activity against ESBL negative Klebsiella pneumoniae 7 assessed as inhibition of bacterial growth by CLSI based micro broth double dilution method
Klebsiella pneumoniae [3] = assay: Antibacterial activity against ESBL negative Klebsiella pneumoniae 16-2 assessed as inhibition of bacterial growth by CLSI based micro broth double dilution method
Streptococcus pyogenes [4] = assay: Antibacterial activity against erythromycin-sensitive Streptococcus pyogenes ATCC 19615 assessed as inhibition of bacterial growth by CLSI based micro broth double dilution method
Streptococcus pyogenes [5] = assay: Antibacterial activity against erythromycin-resistant Streptococcus pyogenes 12-1 assessed as inhibition of bacterial growth by CLSI based micro broth double dilution method
Enterococcus faecalis [6] = assay: Antibacterial activity against vancomycin-sensitive Enterococcus faecalis […] assessed as inhibition of bacterial growth by CLSI based micro broth double dilution method
Enterococcus faecalis [7] = assay: Antibacterial activity against vancomycin-sensitive Enterococcus faecalis 16-6 assessed as inhibition of bacterial growth by CLSI based micro broth double dilution method
Enterococcus faecalis [8] = assay: Antibacterial activity against vancomycin-resistant Enterococcus faecalis ATCC 51575 assessed as inhibition of bacterial growth by CLSI based micro broth double dilution method
Enterococcus faecalis [9] = assay: Antibacterial activity against vancomycin-resistant Enterococcus faecalis ATCC 51299 assessed as inhibition of bacterial growth by CLSI based micro broth double dilution method
Streptococcus pneumoniae [10] = assay: Antibacterial activity against erythromycin-sensitive Streptococcus pneumoniae ATCC 49619 assessed as inhibition of bacterial growth by CLSI based micro broth double dilution method
Streptococcus pneumoniae [11] = assay: Antibacterial activity against erythromycin-resistant Streptococcus pneumoniae 12-3 assessed as inhibition of bacterial growth by CLSI based micro broth double dilution method
Escherichia coli [12] = assay: Antibacterial activity against ESBL-negative Escherichia coli ATCC 25922 assessed as inhibition of bacterial growth by CLSI based micro broth double dilution method
Escherichia coli [13] = assay: Antibacterial activity against Escherichia coli 16-7 assessed as inhibition of bacterial growth by CLSI based micro broth double dilution method
Escherichia coli [14] = assay: Antibacterial activity against ESBL-positive Escherichia coli ATCC 35218 assessed as inhibition of bacterial growth by CLSI based micro broth double dilution method
[15] = test system: Staphylococcus epidermidis; assay: Antibacterial activity against methicillin-sensitive Staphylococcus epidermidis ATCC 12228 assessed as inhibition of bacterial growth by CLSI based micro broth double dilution method
[16] = test system: Staphylococcus epidermidis; assay: Antibacterial activity against methicillin-sensitive Staphylococcus epidermidis 16-4 assessed as inhibition of bacterial growth by CLSI based micro broth double dilution method
Staphylococcus aureus [17] = assay: Antibacterial activity against methicillin-sensitive Staphylococcus aureus ATCC 29213 assessed as inhibition of bacterial growth by CLSI based micro broth double dilution method
Staphylococcus aureus [18] = assay: Antibacterial activity against methicillin-sensitive Staphylococcus aureus 15 assessed as inhibition of bacterial growth by CLSI based micro broth double dilution method
Staphylococcus aureus [19] = assay: Antibacterial activity against methicillin-sensitive Staphylococcus aureus 16-1 assessed as inhibition of bacterial growth by CLSI based micro broth double dilution method
Pseudomonas aeruginosa [20] = assay: Antibacterial activity against Pseudomonas aeruginosa ATCC 27853 assessed as inhibition of bacterial growth by CLSI based micro broth double dilution method
Pseudomonas aeruginosa [21] = assay: Antibacterial activity against Pseudomonas aeruginosa PAO1 assessed as inhibition of bacterial growth by CLSI based micro broth double dilution method
Pseudomonas aeruginosa [22] = assay: Antibacterial activity against Pseudomonas aeruginosa 16-11 assessed as inhibition of bacterial growth by CLSI based micro broth double dilution method
Streptococcus pyogenes [23] = assay: Potency index, ratio of telithromycin MIC to test compound MIC for antibacterial activity against erythromycin-resistant Streptococcus pyogenes 12-1 assessed as inhibition of bacterial growth by CLSI based micro broth double dilution method
Streptococcus pneumoniae [24] = assay: Potency index, ratio of telithromycin MIC to test compound MIC for antibacterial activity against erythromycin-resistant Streptococcus pneumoniae 12-3 assessed as inhibition of bacterial growth by CLSI based micro broth double dilution method

Structure (SMILES)	MIC (Klebsiella pneumoniae [1])	MIC (Klebsiella pneumoniae [2])	MIC (Klebsiella pneumoniae [3])	MIC (Streptococcus pyogenes [4])	MIC (Streptococcus pyogenes [5])	MIC (Enterococcus faecalis [6])	MIC (Enterococcus faecalis [7])	MIC (Enterococcus faecalis [8])	MIC (Enterococcus faecalis [9])	MIC (Streptococcus pneumoniae [10])	MIC (Streptococcus pneumoniae [11])	MIC (Escherichia coli [12])	MIC (Escherichia coli [13])	MIC (Escherichia coli [14])	MIC [15]	MIC [16]	MIC (Staphylococcus aureus [17])	MIC (Staphylococcus aureus [18])	MIC (Staphylococcus aureus [19])	MIC (Pseudomonas aeruginosa [20])	also measured
CC[C@H]1OC(=O)[C@@](C)(F)C(=O)[C@H](C)[C@@H](O[C@@H]2O[C@H](C)C[C@H](N(C)C)[C@H]2O)[C@@](C)(OC)C[C@@H](C)C(=O)[C@H](C)[C@H]2N(CCCN(C)c3ccnc4ccccc34)C(=O)O[C@]12C	> 32 µg/mL	> 32 µg/mL	> 32 µg/mL	0.03 µg/mL (≈ 0.0362 µM)	> 32 µg/mL	0.25 µg/mL (≈ 0.302 µM)	> 32 µg/mL	> 32 µg/mL	> 32 µg/mL	0.03 µg/mL (≈ 0.0362 µM)	0.12 µg/mL (≈ 0.145 µM)	> 32 µg/mL	> 32 µg/mL	> 32 µg/mL	0.25 µg/mL (≈ 0.302 µM)	2 µg/mL (≈ 2.41 µM)	0.5 µg/mL (≈ 0.603 µM)	0.5 µg/mL (≈ 0.603 µM)	0.5 µg/mL (≈ 0.603 µM)	> 32 µg/mL	MIC (Pseudomonas aeruginosa [21]): > 32 µg/mL; MIC (Pseudomonas aeruginosa [22]): > 32 µg/mL
CC[C@H]1OC(=O)[C@@](C)(F)C(=O)[C@H](C)[C@@H](O[C@@H]2O[C@H](C)C[C@H](N(C)C)[C@H]2O)[C@@](C)(OC)C[C@@H](C)C(=O)[C@H](C)[C@H]2N(CCCOc3ccnc4ccccc34)C(=O)O[C@]12C	> 32 µg/mL	> 32 µg/mL	> 32 µg/mL	0.25 µg/mL (≈ 0.306 µM)	16 µg/mL (≈ 19.6 µM)	0.5 µg/mL (≈ 0.613 µM)	> 32 µg/mL	> 32 µg/mL	> 32 µg/mL	0.25 µg/mL (≈ 0.306 µM)	32 µg/mL (≈ 39.2 µM)	> 32 µg/mL	> 32 µg/mL	> 32 µg/mL	0.5 µg/mL (≈ 0.613 µM)	1 µg/mL (≈ 1.23 µM)	1 µg/mL (≈ 1.23 µM)	1 µg/mL (≈ 1.23 µM)	0.5 µg/mL (≈ 0.613 µM)	> 32 µg/mL	MIC (Pseudomonas aeruginosa [21]): > 32 µg/mL; MIC (Pseudomonas aeruginosa [22]): > 32 µg/mL
CC[C@H]1OC(=O)[C@@](C)(F)C(=O)[C@H](C)[C@@H](O[C@@H]2O[C@H](C)C[C@H](N(C)C)[C@H]2O)[C@@](C)(OC)C[C@@H](C)C(=O)[C@H](C)[C@H]2N(CCCn3ccc(=O)c4ccccc43)C(=O)O[C@]12C	> 32 µg/mL	> 32 µg/mL	> 32 µg/mL	0.03 µg/mL (≈ 0.0368 µM)	> 32 µg/mL	0.06 µg/mL (≈ 0.0735 µM)	> 32 µg/mL	> 32 µg/mL	> 32 µg/mL	≤ 0.016 µg/mL	0.25 µg/mL (≈ 0.306 µM)	16 µg/mL (≈ 19.6 µM)	> 32 µg/mL	> 32 µg/mL	0.06 µg/mL (≈ 0.0735 µM)	0.25 µg/mL (≈ 0.306 µM)	0.12 µg/mL (≈ 0.147 µM)	0.12 µg/mL (≈ 0.147 µM)	0.12 µg/mL (≈ 0.147 µM)	> 32 µg/mL	MIC (Pseudomonas aeruginosa [21]): > 32 µg/mL; MIC (Pseudomonas aeruginosa [22]): > 32 µg/mL
CCCCN(CCCN1C(=O)O[C@]2(C)[C@@H](CC)OC(=O)[C@@](C)(F)C(=O)[C@H](C)[C@@H](O[C@@H]3O[C@H](C)C[C@H](N(C)C)[C@H]3O)[C@@](C)(OC)C[C@@H](C)C(=O)[C@H](C)[C@@H]12)c1ccnc2ccccc12	32 µg/mL (≈ 36.7 µM)	> 32 µg/mL	> 32 µg/mL	0.015 µg/mL (≈ 0.0172 µM)	2 µg/mL (≈ 2.3 µM)	0.03 µg/mL (≈ 0.0344 µM)	2 µg/mL (≈ 2.3 µM)	1 µg/mL (≈ 1.15 µM)	1 µg/mL (≈ 1.15 µM)	≤ 0.016 µg/mL	≤ 0.016 µg/mL	32 µg/mL (≈ 36.7 µM)	32 µg/mL (≈ 36.7 µM)	32 µg/mL (≈ 36.7 µM)	0.12 µg/mL (≈ 0.138 µM)	0.25 µg/mL (≈ 0.287 µM)	1 µg/mL (≈ 1.15 µM)	0.06 µg/mL (≈ 0.0689 µM)	0.12 µg/mL (≈ 0.138 µM)	32 µg/mL (≈ 36.7 µM)	MIC (Pseudomonas aeruginosa [21]): 16 µg/mL (≈ 18.4 µM); MIC (Pseudomonas aeruginosa [22]): 16 µg/mL (≈ 18.4 µM); Ratio (Streptococcus pyogenes [23]): 32; Ratio (Streptococcus pneumoniae [24]): 4
CC[C@H]1OC(=O)[C@@](C)(F)C(=O)[C@H](C)[C@@H](O[C@@H]2O[C@H](C)C[C@H](N(C)C)[C@H]2O)[C@@](C)(OC)C[C@@H](C)C(=O)[C@H](C)[C@H]2N(CCCN(Cc3ccccc3)c3ccnc4ccccc34)C(=O)O[C@]12C	> 32 µg/mL	> 32 µg/mL	> 32 µg/mL	0.25 µg/mL (≈ 0.276 µM)	16 µg/mL (≈ 17.7 µM)	2 µg/mL (≈ 2.21 µM)	> 32 µg/mL	> 32 µg/mL	> 32 µg/mL	≤ 0.016 µg/mL	0.12 µg/mL (≈ 0.133 µM)	> 32 µg/mL	> 32 µg/mL	> 32 µg/mL	0.25 µg/mL (≈ 0.276 µM)	2 µg/mL (≈ 2.21 µM)	1 µg/mL (≈ 1.1 µM)	1 µg/mL (≈ 1.1 µM)	1 µg/mL (≈ 1.1 µM)	> 32 µg/mL	MIC (Pseudomonas aeruginosa [21]): > 32 µg/mL; MIC (Pseudomonas aeruginosa [22]): > 32 µg/mL
CC[C@H]1OC(=O)[C@H](C)[C@@H](O[C@H]2C[C@@](C)(OC)[C@@H](O)[C@H](C)O2)[C@H](C)[C@@H](O[C@@H]2O[C@H](C)C[C@H](N(C)C)[C@H]2O)[C@](C)(OC)C[C@@H](C)C(=O)[C@H](C)[C@@H](O)[C@]1(C)O [CLARITHROMYCIN]	> 64 µg/mL	> 64 µg/mL	> 64 µg/mL	0.03 µg/mL (≈ 0.0401 µM)	64 µg/mL (≈ 85.6 µM)	2 µg/mL (≈ 2.67 µM)	> 64 µg/mL	> 64 µg/mL	> 64 µg/mL	0.12 µg/mL (≈ 0.16 µM)	> 32 µg/mL	32 µg/mL (≈ 42.8 µM)	> 64 µg/mL	> 64 µg/mL	0.12 µg/mL (≈ 0.16 µM)	64 µg/mL (≈ 85.6 µM)	0.25 µg/mL (≈ 0.334 µM)	0.25 µg/mL (≈ 0.334 µM)	0.25 µg/mL (≈ 0.334 µM)	> 64 µg/mL	MIC (Pseudomonas aeruginosa [21]): > 64 µg/mL; MIC (Pseudomonas aeruginosa [22]): > 64 µg/mL
CC[C@H]1OC(=O)[C@H](C)C(=O)[C@H](C)[C@@H](O[C@@H]2O[C@H](C)C[C@H](N(C)C)[C@H]2O)[C@](C)(OC)C[C@@H](C)C(=O)[C@H](C)[C@H]2N(CCCCn3cnc(-c4cccnc4)c3)C(=O)O[C@]12C [TELITHROMYCIN]	> 64 µg/mL	> 64 µg/mL	> 64 µg/mL	0.06 µg/mL (≈ 0.0739 µM)	64 µg/mL (≈ 78.8 µM)	0.12 µg/mL (≈ 0.148 µM)	16 µg/mL (≈ 19.7 µM)	16 µg/mL (≈ 19.7 µM)	16 µg/mL (≈ 19.7 µM)	0.03 µg/mL (≈ 0.0369 µM)	0.06 µg/mL (≈ 0.0739 µM)	64 µg/mL (≈ 78.8 µM)	> 64 µg/mL	> 64 µg/mL	0.25 µg/mL (≈ 0.308 µM)	1 µg/mL (≈ 1.23 µM)	0.25 µg/mL (≈ 0.308 µM)	0.25 µg/mL (≈ 0.308 µM)	0.25 µg/mL (≈ 0.308 µM)	> 64 µg/mL	MIC (Pseudomonas aeruginosa [21]): > 64 µg/mL; MIC (Pseudomonas aeruginosa [22]): > 64 µg/mL
